The values that follow come from publication PMC3963422 (Journal of Visualized Experiments : JoVE, 2013).

Each structure is given as a SMILES string.

Assay [1] is described as follows: cantilever array surface stress detection, D-Lac coated cantilevers, buffer. It is filed as binding.
The nature of assay [2]: cantilever bending in serum, D-Ala coated cantilevers. Format: binding. The settings on record: 7 μM Van in serum (90% fetal calf serum plus 10% sodium phosphate buffer pH 7.4), 25 °C.
Assay [3] in a line: cantilever bending in serum, D-Lac coated cantilevers. Format: binding. To be noted: 7 μM Van in serum (90% fetal calf serum plus 10% sodium phosphate buffer pH 7.4), 25 °C.
The conditions of assay [4]: D-Lac vs D-Ala peptide terminus; cited from earlier work.
In assay [5] the test system is vancomycin-resistant Enterococcus (VRE). The settings on record: vancomycin-resistant Enterococcus (D-Lac); cited from earlier work.

Take `CN[C@H](CC(C)C)C(=O)N[C@H]1C(=O)N[C@@H](CC(N)=O)C(=O)N[C@H]2C(=O)N[C@H]3C(=O)N[C@H](C(=O)N[C@H](C(=O)O)c4cc(O)cc(O)c4-c4cc3ccc4O)[C@H](O)c3ccc(c(Cl)c3)Oc3cc2cc(c3O[C@@H]2O[C@H](CO)[C@@H](O)[C@H](O)[C@H]2O[C@H]2C[C@](C)(N)[C@H](O)[C@H](C)O2)Oc2ccc(cc2Cl)[C@H]1O` [Van, vancomycin]: the “bending signal at high vancomycin concentration” value in assay [1] is listed as “measureable bending signals”. Also, the differential bending signal in assay [2] was 105±4 nm. The bending signal result in assay [3] is given as “no bending was observed”. Further, the “reduction in Van-D-Lac binding affinity” value in assay [4] is “three orders of magnitude”. Besides, the “therapeutic effectiveness against Enterococcal infections” value in assay [5] is reported as “therapeutically ineffective”.
